Assay [1] has as its target Human immunodeficiency virus type 1 reverse transcriptase (Human immunodeficiency virus 1) (UniProt Q72547). In words: In vitro inhibitory activity against human immunodeficiency virus type 1 (HIV-1) reverse transcriptase (RT) at a concentration of 10 ug/mL.
The target of assay [2] is T1, Human immunodeficiency virus type 1 reverse transcriptase (Human immunodeficiency virus 1, UniProt Q72547). Kind of assay: In vitro inhibitory activity against human immunodeficiency virus type 1 (HIV-1) reverse transcriptase (RT).
The subject of assay [3] is T-cell line. Kind of assay: In vitro cytotoxicity in CD4+ human T-cells (c8166), […]. The format is functional.
For assay [4], the target named is T1, Human immunodeficiency virus type 1 reverse transcriptase. Kind of assay: In vitro inhibitory activity of compound against human immunodeficiency virus type 1 (HIV-1) Reverse transcriptase.
Assay [5] addresses Human immunodeficiency virus type 1 reverse transcriptase (Human immunodeficiency virus 1) (UniProt Q72547). In words: In vitro inhibitory activity of compound against human immunodeficiency virus type 1 (HIV-1) Reverse transcriptase at a concentration of 10 ug/mL.
For assay [6] the target is unchanged. Kind of assay: In vitro inhibitory activity of compound against human immunodeficiency virus type 1 (HIV-1) rReverse transcriptase at a concentration of 10 ug/mL.

Bounds are passed on as bounds.

Usually inhibition stands for the relative decrease from the control value, in per cent. Broadly, the IC50 is the concentration needed to halve the response being measured. A higher IC50 goes with lower potency. `CCN1c2cc([N+](=O)[O-])ccc2N(C)C(=O)c2cc(Br)cnc21` registered an inhibition in assay [1] of 95%. In addition, 890 nM corresponded to half-maximal inhibition in assay [2] (IC50).

For the compound `CCN1c2cc(Cl)ccc2N(C)C(=O)c2cccnc21`, the inhibition in assay [1] came to 100%. Besides, in assay [2], the midpoint of inhibition, the IC50, lay at 170 nM.

`CCN1c2cc(C(F)(F)F)ccc2N(C)C(=O)c2cccnc21` had an inhibition in assay [1] of 97%. Also, half-maximal inhibition in assay [2] (IC50) required 230 nM.

On to `O=C1Nc2cccnc2N(C2CCC2)c2ncccc21`, for which the inhibition in assay [1] was 99%. The compound also gave an IC50 in assay [2] of 430 nM.

Usually CC50 stands for the concentration that lowers cell viability or growth by half. Low readings indicate harm at low concentration, high ones better tolerance by the cells. For the compound `Cc1cn([C@H]2C[C@H](N=[N+]=[N-])[C@@H](CO)O2)c(=O)[nH]c1=O` [ZIDOVUDINE], in assay [3], the CC50 came out at 66000 nM. For the same compound, half-maximal inhibition in assay [2] (IC50) was put at 6 nM.

`CC(=O)N1c2cc(C)c(C)cc2N(C)C(=O)c2cccnc21` came in with an inhibition in assay [1] of 96%. The IC50 in assay [2] stood at 420 nM.

On to `Cc1ccc2c(n1)Nc1ccccc1C(=O)N2`, for which the inhibition in assay [1] is 46%. In assay [2], the IC50 was above 1000 nM.

For `CCN1c2ccc(OC)cc2N(C)C(=O)c2cccnc21`, the inhibition in assay [1] stood at 95%. In addition, inhibition in assay [2] was half-maximal at 2100 nM (IC50).

The compound `CN1C(=O)c2cccnc2N(C2CCCCC2)c2ncccc21` displayed an inhibition in assay [1] of 73%. For the same compound, the half-inhibitory concentration (IC50) in assay [2] was above 1000 nM.

In the case of `CCN1c2nc(C)c(C)cc2NC(=O)c2cccnc21`, the inhibition in assay [1] worked out at 100%. In assay [2], the concentration for half-maximal inhibition (IC50) was found to be 410 nM.

With `CCN1c2ccc(C(=O)OC)cc2N(C)C(=O)c2cccnc21`, the inhibition in assay [1] was 94%. The concentration for half-maximal inhibition (IC50) in assay [2] was found to be 1100 nM.

Turning to `CCN1c2ncccc2C(=O)N(C)c2ccc(Cl)nc21`, in assay [4], half-maximal inhibition (IC50) was put at 150 nM. The inhibition in assay [5] amounted to 100%.

With `CCN1c2ncccc2C(=O)N(C)c2cc([N+](=O)[O-])cnc21`, the inhibition in assay [1] turned out to be 64%. In assay [2], this compound returned an IC50 above 1000 nM.

Regarding `O=C1Nc2c(CO)ccnc2N(C2CC2)c2ncccc21`, the inhibition in assay [1] is 94%. Further, the IC50 in assay [2] was 3000 nM.

Take `Cc1ccc2c(c1)N(C)C(=O)c1c(C)cc(C)nc1N2C`: the inhibition in assay [1] is 49%. For the same compound, the IC50 in assay [2] was above 1000 nM.

`CCN1c2ccccc2N(C)C(=O)c2cc(C(F)(F)C(F)(F)F)cnc21` returned an inhibition in assay [1] of 5%. Besides, the IC50 in assay [2] was above 1000 nM.

`Cc1ccnc2c1NC(=O)c1c(O)ccnc1N2C1CC1`: the inhibition in assay [1] was 96%. For the same compound, the IC50 in assay [2] was above 1000 nM.

As to `CCN1c2ncccc2C(=O)N(C)c2cc(Cl)c([N+](=O)[O-])nc21`, the IC50 in assay [4] is above 1000 nM. The compound also yielded an inhibition in assay [5] of 98%.

Regarding `CCN(CC)C(=O)c1ccc2c(c1)N(C)C(=O)c1cccnc1N2CC`, in assay [1], the inhibition was found to be 11%. Further, the IC50 in assay [2] was above 1000 nM.

Regarding `CCN1c2ccccc2N(C)C(=O)c2ccc(F)nc21`, the inhibition in assay [1] came to 84%. The IC50 in assay [2] stood at 2900 nM.

For the compound `CCN1c2ncccc2C(=O)N(C)c2cc(N)cnc21`, the inhibition in assay [1] was 92%. Besides, the IC50 in assay [2] is above 1000 nM.

As for `C#CN1c2ccccc2N(C)C(=O)c2cccnc21`, in assay [1], the inhibition came out at 97%. This compound showed an IC50 in assay [2] of 650 nM.

Turning to `CCN1c2ncccc2NC(=O)c2c(C)ccnc21`, the inhibition in assay [1] was determined as 80%. Moreover, the IC50 in assay [2] was above 1000 nM.

For the compound `O=C1Nc2cccnc2N(C2CC2)c2ncccc21`, in assay [1], the inhibition came to 99%. The compound also gave an IC50 in assay [2] of 450 nM.

For the compound `CCN1c2ccc(C)c(C)c2N(C)C(=O)c2cccnc21`, in assay [1], the inhibition stood at 99%. In assay [2], this compound registered an IC50 of 36 nM.

Regarding `CCN1c2ncccc2NC(=O)c2cc(C)cnc21`, the inhibition in assay [1] stood at 89%. In assay [2], the IC50 is above 1000 nM.

`CCN1c2cc(N=[N+]=[N-])ccc2N(C)C(=O)c2cccnc21` yielded an inhibition in assay [1] of 100%. The compound further yielded an IC50 in assay [2] of 140 nM.

`CCN1c2ccc(CN)cc2N(C)C(=O)c2cccnc21` showed an inhibition in assay [1] of 84%. This compound also showed an IC50 in assay [2] above 1000 nM.

In the case of `CCCCN1c2ccccc2N(C)C(=O)c2cccnc21`, the inhibition in assay [1] came out at 81%. Moreover, the IC50 in assay [2] was 1000 nM.

For the compound `CCN1C(=O)c2ccccc2N(C)c2nc(Cl)ccc21`, the IC50 in assay [4] turned out to be 3300 nM. This compound also gave an inhibition in assay [6] of 76%.

`CCN1c2ncccc2C(=O)Nc2c(Cl)ccnc21` came in with an inhibition in assay [1] of 100%. In assay [2], this compound yielded an IC50 of 95 nM.

In turn, `CCN1C(=O)c2cccnc2Nc2ccccc21` showed an inhibition in assay [1] of 87%. Besides, in assay [2], the IC50 is above 1000 nM.

Compound `CN1C(=O)c2cccnc2N(Cc2ccccc2)c2ccccc21` came in with an inhibition in assay [1] of 93%. In assay [2], this compound yielded an IC50 of 9000 nM.

In assay [1], `CSCN1c2ccccc2N(C)C(=O)c2cccnc21` registered an inhibition of 84%. Besides, inhibition in assay [2] was half-maximal at 6600 nM (IC50).

For the compound `CN1C(=O)c2cccnc2Nc2ccccc21`, in assay [1], the inhibition came out at 43%. This compound came in with an IC50 in assay [2] above 1000 nM.

In assay [1], `CCN1c2ccccc2NC(=O)c2cccnc21` showed an inhibition of 99%. In assay [2], it took 380 nM to reach half-maximal inhibition (IC50).

In assay [1], `CCN1c2cc(N)ccc2N(C)C(=O)c2cccnc21` returned an inhibition of 89%. In assay [2], this compound had an IC50 of 4500 nM.

For the compound `CCN1C(=O)c2cccnc2N(C)c2ccccc21`, the inhibition in assay [1] amounted to 84%. For the same compound, the IC50 in assay [2] is above 1000 nM.

In assay [1], `CCN1C(=O)c2cccnc2N(CC)c2ccccc21` came in with an inhibition of 99%. In assay [2], this compound displayed an IC50 of 380 nM.

On to `CC(C)(C)OC(=O)CN1C(=O)c2cccnc2Nc2ccccc21`, for which, in assay [1], the inhibition worked out at 39%. The compound further had an IC50 in assay [2] above 1000 nM.

`CCN1c2ncccc2C(=O)N(C)c2cccnc21` displayed an inhibition in assay [1] of 100%. This compound yielded an IC50 in assay [2] of 125 nM.

The compound `CCN1c2ncccc2NC(=O)c2cccnc21` showed an inhibition in assay [1] of 99%. Further, in assay [2], the IC50 stood at 440 nM.

Take `CN(C)CCN1C(=O)c2cccnc2N(C2CC2)c2ncccc21`: the inhibition in assay [1] was found to be 34%. Further, in assay [2], the IC50 was above 1000 nM.

With `CSCN1c2ncccc2C(=O)N(C)c2cccnc21`, the inhibition in assay [1] came to 99%. For the same compound, half-maximal inhibition in assay [2] (IC50) required 850 nM.

In the case of `CN1c2ccccc2NC(=O)c2cccnc21`, in assay [1], the inhibition was determined as 75%. This compound also displayed a half-maximal inhibitory concentration (IC50) in assay [2] above 1000 nM.

As to `CCN1c2ncccc2C(=O)N(C(C)=O)c2cccnc21`, the inhibition in assay [1] was found to be 99%. Also, in assay [2], half-maximal inhibition (IC50) required 360 nM.

`CCc1ccnc2c1NC(=O)c1cccnc1N2CC` yielded an inhibition in assay [1] of 100%. Besides, the concentration for half-maximal inhibition (IC50) in assay [2] turned out to be 110 nM.

The values above are taken from ChEMBL document CHEMBL1125844, “Novel non-nucleoside inhibitors of HIV-1 reverse transcriptase. 1. Tricyclic pyridobenzo- and dipyridodiazepinones” (J Med Chem, 1991).
